Measurements: the supplement of paper PMC10307832

These cell lines were tested with NCC(=O)Nc1ccc(-n2nc(C(F)(F)F)cc2-c2ccc3c(ccc4ccccc43)c2)cc1 + CS(=O)(=O)CCNCc1ccc(-c2ccc3ncnc(Nc4ccc(OCc5cccc(F)c5)c(Cl)c4)c3c2)o1 [Lapatinib] (partner 2 µM) (assay: relative viability (nuclei count vs DMSO), 5 days (fraction); higher = more cells survive). Details: first compound 2 µM.
In short: (§1)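 Medians of duplicate plates are given as relative viability. That measure is the nuclei count in treated wells divided by the count in vehicle wells. Counts were taken on 4× images of lung cancer cell lines in 1536-well plates, 5 days after pin-tool dosing the day after seeding with one drug alone or a fixed anchor-drug dose plus five library-drug doses (not always all listed) in √10 steps.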

Cell Line | relative viability
NCI-H1666 | 0.604
NCI-H596 | 1.19
LK-2 | 0.874
NCI-H2087 | 1.15
SK-MES-1 | 0.46
H3255 | 0.268
COR-L23 | 0.659
COR-L 105 | 0.437
IA-LM | 0.717
LOU-NH91 | 0.767
NCI-H2170 | 0.288
NCI-H2405 | 1.13
HOP-62 | 1.14
HCC-44 | 1.05
A549 | 0.95
LU99A | 0.944
BEN | 0.542
HARA | 0.989
HCC-78 | 0.342
NCI-H322M | 0.558

Cell Line | relative viability
LCLC-97TM1 | 0.893
NCI-H2009 | 0.958
A-427 | 1.11
NCI-H661 | 0.556
NCI-H1734 | 0.853
NCI-H460 | 0.576
NCI-H2347 | 0.884
SK-LU-1 | 0.929
NCI-H1395 | 1.04
201T | 1.04
NCI-H1915 | 0.996
HCC-827 | 0.23
LXF-289 | 0.887
NCI-H23 | 0.955
NCI-H1299 | 0.972
NCI-H647 | 0.631
CAL-12T | 0.679
NCI-H1651 | 0.85
EPLC-272H | 1.21

What follows are cell lines tested with C1CSC2=C(C(=O)N1)SC3=C2C=C(C=C3)O [kb NB 142-70] + CS(=O)(=O)N1CCN(Cc2cc3nc(-c4cccc5[nH]ncc45)nc(N4CCOCC4)c3s2)CC1 [Pictilisib] (partner 1 µM) in the same assay as above. Details: first compound 0.1 µM.
In short: as §1

Cell Line | relative viability
NCI-H1666 | 0.405
NCI-H596 | 0.399
LK-2 | 0.483
NCI-H2087 | 0.905
SK-MES-1 | 0.333
H3255 | 0.469
COR-L23 | 0.765
COR-L 105 | 0.376
IA-LM | 0.412
LOU-NH91 | 0.526
NCI-H2170 | 0.299
NCI-H2405 | 0.378
HOP-62 | 0.736
HCC-44 | 0.566
A549 | 0.474
LU99A | 0.305
BEN | 0.561
HARA | 0.476
HCC-78 | 0.213
NCI-H322M | 0.54

Cell Line | relative viability
LCLC-97TM1 | 0.216
NCI-H2009 | 0.857
A-427 | 0.816
NCI-H661 | 0.496
NCI-H1734 | 0.429
NCI-H460 | 0.363
NCI-H2347 | 0.874
SK-LU-1 | 0.608
NCI-H1395 | 0.901
201T | 0.683
NCI-H1915 | 1.01
HCC-827 | 0.832
LXF-289 | 0.739
NCI-H23 | 0.517
NCI-H1299 | 0.802
NCI-H647 | 0.497
CAL-12T | 0.563
NCI-H1651 | 0.563
EPLC-272H | 0.349

Same assay, conditions: first compound 1 µM

Cell Line | relative viability
NCI-H1666 | 0.346
NCI-H596 | 0.351
LK-2 | 0.42
NCI-H2087 | 0.75
SK-MES-1 | 0.325
H3255 | 0.45
COR-L23 | 0.807
COR-L 105 | 0.392
IA-LM | 0.529
LOU-NH91 | 0.505
NCI-H2170 | 0.275
NCI-H2405 | 0.379
HOP-62 | 0.606
HCC-44 | 0.622
A549 | 0.498
LU99A | 0.294
BEN | 0.527
HARA | 0.372
HCC-78 | 0.216
NCI-H322M | 0.561

Cell Line | relative viability
LCLC-97TM1 | 0.232
NCI-H2009 | 0.814
A-427 | 0.753
NCI-H661 | 0.343
NCI-H1734 | 0.432
NCI-H460 | 0.323
NCI-H2347 | 0.659
SK-LU-1 | 0.484
NCI-H1395 | 0.687
201T | 0.649
NCI-H1915 | 0.889
HCC-827 | 1.13
LXF-289 | 0.737
NCI-H23 | 0.42
NCI-H1299 | 0.889
NCI-H647 | 0.474
CAL-12T | 0.451
NCI-H1651 | 0.497
EPLC-272H | 0.325

Same assay, conditions: first compound 3.162 µM

Cell Line | relative viability
NCI-H1666 | 0.204
NCI-H596 | 0.352
LK-2 | 0.183
NCI-H2087 | 0.576
SK-MES-1 | 0.235
H3255 | 0.437
COR-L23 | 0.251
COR-L 105 | 0.37
IA-LM | 0.51
LOU-NH91 | 0.41
NCI-H2170 | 0.227
NCI-H2405 | 0.382
HOP-62 | 0.73
HCC-44 | 0.646
A549 | 0.114
LU99A | 0.298
BEN | 0.405
HARA | 0.381
HCC-78 | 0.181
NCI-H322M | 0.504

Cell Line | relative viability
LCLC-97TM1 | 0.236
NCI-H2009 | 0.564
A-427 | 0.748
NCI-H661 | 0.351
NCI-H1734 | 0.363
NCI-H460 | 0.274
NCI-H2347 | 0.324
SK-LU-1 | 0.324
NCI-H1395 | 0.6
201T | 0.698
NCI-H1915 | 0.905
HCC-827 | 0.781
LXF-289 | 0.749
NCI-H23 | 0.293
NCI-H1299 | 0.32
NCI-H647 | 0.408
CAL-12T | 0.344
NCI-H1651 | 0.344
EPLC-272H | 0.237
